Measurements published in patent US9289488B2, “Vaccine engineering” (AC Immune SA, priority 2010, dated 2016).
Read-outs that look alike come from different tables or passages of the source. K(Palm) = lysine with palmitoylated side chain (X = Palmitoyl); K(Ac) = lysine with acetylated side chain (X = Acetyl)

Columns and labels:
[1] = molecular target: T1, β-sheet aggregates of liposomal Palm1-15 (ACI-24) (Homo sapiens, UniProt P05067); experiment: Disaggregation assay using ThT fluorescence on ACI-24; assay type: biochemical; conditions: for decrease of ThT fluorescence upon addition of metal: near stoichiometric metal:peptide (20 μM : 15 μM), 2 h incubation; for ThT fluorescence after incubation with β-sheet breaker small molecule: ACI-24, 2 h incubation
T1 construct: purchased Bachem (Switzerland); host or cells: chemical synthesis
Experimental: (§1) • CD spectra were acquired on a Jasco-815 spectropolarimeter (Japan) with a 0.1 cm path length quartz cuvette at 23° C. Measurements were made with a 1.0 nm bandwidth and 0.5 nm resolution. A scan speed of 50 nm/min was employed with response time of 1 s. Solvent control spectra (4 scans) were averaged and subtracted from the average of 8 scans of each sample spectra. All spectra ([θ]obs, degrees) were smoothed after being converted to mean residue molar ellipticity ([θ], degrees cm^2 dmol^−1) with the equation [θ]=[θ]obs×(MRW/10lc), where MRW is the mean residue molecular weight (MW/number of residues), l is the optical path length (cm) and c is the concentration (g/cm^3). […] Spectra of the corresponding empty liposomes lacking peptide were subtracted. A2 ThT Fluorescence. • Fluorescence emission spectra were measured at 25° C. on a Tecan M200 spectrofluorimeter with an excitation of 440 nm. […] Data were fitted using non-linear regression analysis (SigmaPlot v10.0) assuming single-site binding saturation in order to calculate apparent Kd and maximal binding Bmax. A3 Disaggregation Assay Using ThT Fluorescence. • ZnCl2, FeCl3 or CuCl2 (2 μL, 1 mM in H2O) were incubated with liposomes diluted 4-fold in PBS (48 μL) for 2 h at 22° C. PBS (48 μL) with or without DPTA (0.4 mM) was added accordingly after 5 min. ThT (2 μL, 2.4 mM in H2O) was then added and fluorescence measured after a further 5 min. For disaggregation with small molecules, Rosmarinic acid, Tannic acid or Methylene Blue (2 μL, 2.7 mM in PBS) were added to 86 μL of liposomes diluted 8-fold with PBS. After 2 h incubation at RT, ThT (2 μL, 2.4 mM in H2O) was added and after 10 min. fluorescence was measured at 490 nm (Ex. 440 nm). A4 MAS-NMR Spectroscopy. • Experiments were conducted using a 3.2 mm triple-resonance (^1H, ^13C, ^15N) MAS probe (Bruker Biospin, Germany) at a static magnetic field of 16.4 T corresponding to 700 MHz proton resonance frequency. […] Experiments were recorded using 10 kHz MAS and at effective sample temperature of about 4° C. After a cross polarization (CP) step employing a contact time of 600 μs, the SPC5 pulse sequence was used for generation of DQ coherence, with a ^13C radio frequency (r.f.) field strength of 50 kHz and DQ excitation and reconversion time totaling 2.28 ms. Acquisition involved in each case 110K repetitions. An ^1H field strength of 83.3 kHz was used during excitation and SPINAL64 proton decoupling. A5 SPR Analysis of Peptide-Liposome Interactions. • Experiments were performed at 25° C. using 0.2 μm filtered and degassed PBS as running buffer. An L1 sensor chip (GE Healthcare, Sweden) was docked into a BIAcore 1000 instrument and the chip surface conditioned by injection of 50 μL of Zwittergent at 30 μL/min. Liposomes lacking peptide (‘empty’ liposomes) were then immobilized onto the sensor chip following 2 successive injections of 50 μL at 2 μL/min. Finally 50 μL of 50 mM NaOH was injected over the surface at 30 μL/min in order to render the surface more unilamellar. […] 50 μL of acetylated peptides solubilized in PBS were then injected over the surface over a range of concentrations at a flow rate of 30 μL/min, followed by dissociation with PBS for 300 s. After analysis of the interaction of different peptides, a fresh lipid bilayer was immobilized. A6 Dynamic Light Scattering. • Liposome samples were diluted 100-fold with PBS. Analysis was performed using a Zetasizer Nano (Malvern, USA) at 25° C. Data was analyzed with DTS 5.0 (Malvern) software by signal intensity in order to calculate the average liposome diameter and polydispersity index (PDI). A7 Cryo-EM. • Liposome sample was diluted 6-fold with PBS and then 3 μL was applied on glow discharged R 2/4 holey carbon grids (Quantifoil®), blotted off, and plunged frozen into liquid ethane under temperature and humidity controlled conditions using the Vitribot™ (FEI, The Netherlands).

[2] = reported value; read-out: apparent Kd for the interaction of ThT with Aβ1-40; cited from earlier work
[3] = CD spectroscopy of peptide secondary structure; assay type: physicochemical; conditions: PBS; palmitoylated peptides in liposomes, acetylated peptides alone
Experimental: as §1

[4] = ThT fluorescence binding to liposomal peptide constructs; conditions: for Kd: ThT binding, single site fit, read-out: App. Kd; for Kd / Bmax: liposomes DMPC/DMPG/cholesterol/MPLA 9:1:7:0.06, diluted 8-fold; for Bmax: ThT fluorescence at saturation; for Bmax (% rel. ACI-24): relative to ACI-24 (Palm1-15); for ThT fluorescence emission (in words): emission at 485 nm, excitation 440 nm, PBS
Experimental: as §1

| Compound | Kd [4] [µM] | Bmax [4] | Bmax (% rel. ACI-24) [4] [%] | Secondary structure by CD spectroscopy [3] | other results |
| --- | --- | --- | --- | --- | --- |
| [Cl][Cu][Cl] [Cu(II), CuCl2] | – | – | – | – | EC50 ([1]; ACI-24, ThT fluorescence, read-out: EC50 value for Cu(II) disaggregation): ~3 µM; decrease of ThT fluorescence upon addition of metal [1]: ~75% |
| [Cl][Fe]([Cl])[Cl] [Fe(III), FeCl3] | – | – | – | – | decrease of ThT fluorescence upon addition of metal [1]: none |
| CN(C)c1ccc2nc3ccc(=[N+](C)C)cc-3sc2c1 [Methylene Blue] | – | – | – | – | ThT fluorescence after incubation with β-sheet breaker small molecule [1]: most efficient disaggregation |
| O=C(/C=C/c1ccc(O)c(O)c1)O[C@H](Cc1ccc(O)c(O)c1)C(=O)O [Rosmarinic acid] | – | – | – | – | ThT fluorescence after incubation with β-sheet breaker small molecule [1]: decrease of fluorescence |
| O=C(OC[C@H]1O[C@@H](OC(=O)c2cc(O)c(O)c(OC(=O)c3cc(O)c(O)c(O)c3)c2)[C@H](OC(=O)c2cc(O)c(O)c(OC(=O)c3cc(O)c(O)c(O)c3)c2)[C@@H](OC(=O)c2cc(O)c(O)c(OC(=O)c3cc(O)c(O)c(O)c3)c2)[C@@H]1OC(=O)c1cc(O)c(O)c(OC(=O)c2cc(O)c(O)c(O)c2)c1)c1cc(O)c(O)c(OC(=O)c2cc(O)c(O)c(O)c2)c1 [Tannic acid] | – | – | – | – | ThT fluorescence after incubation with β-sheet breaker small molecule [1]: decrease of fluorescence |
| [Cl-].[Cl-].[Zn+2] [Zn(II), ZnCl2] | – | – | – | – | decrease of ThT fluorescence upon addition of metal [1]: ~12% |
| Aβ1-40: β-amyloid peptide Aβ1-40 | – | – | – | – | Kd [2]: 11 µM |
| H-K(X)-K(X)-DAAFRHKSGYEVHHQ-K(X)-K(X)-OH ({K(Ac)-K(Ac)}-DAAFRHKSGYEVHHQ-{K(Ac)-K(Ac)-OH}) [Acetyl1-15(E3A, D7K), X = Acetyl] | – | – | – | unstructured random coil conformations | – |
| H-K(X)-K(X)-DAEFRHKSGYEVHHQ-K(X)-K(X)-OH ({K(Ac)-K(Ac)}-DAEFRHKSGYEVHHQ-{K(Ac)-K(Ac)-OH}) [Acetyl1-15(D7K), X = Acetyl] | – | – | – | unstructured random coil conformations | – |
| H-K(X)-K(X)-DAKFRHKSGYEVHHQ-K(X)-K(X)-OH ({K(Ac)-K(Ac)}-DAKFRHKSGYEVHHQ-{K(Ac)-K(Ac)-OH}) [Acetyl1-15(E3K, D7K), X = Acetyl] | – | – | – | unstructured random coil conformations | – |
| H-K(X)-K(X)-DAKFRHKSGYKVHHQ-K(X)-K(X)-OH ({K(Ac)-K(Ac)}-DAKFRHKSGYKVHHQ-{K(Ac)-K(Ac)-OH}) [Acetyl1-15(E3K, D7K, E11K), X = Acetyl] | – | – | – | unstructured random coil conformations | – |
| H-K(X)-K(X)-GHEAYHSVERFDDQH-K(X)-K(X)-OH [scAcetyl15] ({K(Ac)-K(Ac)}-GHEAYHSVERFDDQH-{K(Ac)-K(Ac)-OH}) [X = Acetyl] | – | – | – | unstructured random coil conformations | ThT fluorescence emission (in words) [4]: no fluorescence |
| H-K(X)-K(X)-QHHVEYGSDHRFEAD-K(X)-K(X)-OH [Acetyl15-1] ({K(Ac)-K(Ac)}-QHHVEYGSDHRFEAD-{K(Ac)-K(Ac)-OH}) [X = Acetyl] | – | – | – | unstructured random coil conformations | ThT fluorescence emission (in words) [4]: no fluorescence |

More lines, main results first:

| Kd [4] [µM] | Bmax [4] | Bmax (% rel. ACI-24) [4] [%] | Compound | Secondary structure by CD spectroscopy [3] | other results |
| --- | --- | --- | --- | --- | --- |
| 14.7 | 24854 | 68 | H-K(X)-K(X)-DAAFRHKSGYEVHHQ-K(X)-K(X)-OH ({K(Palm)-K(Palm)}-DAAFRHKSGYEVHHQ-{K(Palm)-K(Palm)-OH}) [Palm1-15(E3A, D7K), X = Palmitoyl] | – | – |
| 0.7 | 12653 | 35 | H-K(X)-K(X)-DAEFR-K(X)-K(X)-OH [Palm1-5, X = Palmitoyl] | mixed proportion of extended β-sheet and random coil conformations | ThT fluorescence emission (in words) [4]: lower ThT fluorescence intensity |
| 8.8 | 21197 | 58 | H-K(X)-K(X)-DAEFRHKSGYEVHHQ-K(X)-K(X)-OH ({K(Palm)-K(Palm)}-DAEFRHKSGYEVHHQ-{K(Palm)-K(Palm)-OH}) [Palm1-15(D7K), X = Palmitoyl] | – | – |
| 12.1 | 12567 | 35 | H-K(X)-K(X)-DAKFRHKSGYEVHHQ-K(X)-K(X)-OH ({K(Palm)-K(Palm)}-DAKFRHKSGYEVHHQ-{K(Palm)-K(Palm)-OH}) [Palm1-15(E3K, D7K), X = Palmitoyl] | – | – |
| 10.1 | 24981 | 69 | H-K(X)-K(X)-DAKFRHKSGYKVHHQ-K(X)-K(X)-OH ({K(Palm)-K(Palm)}-DAKFRHKSGYKVHHQ-{K(Palm)-K(Palm)-OH}) [Palm1-15(E3K, D7K, E11K), X = Palmitoyl] | – | – |
| 7.9 | 13844 | 38 | H-K(X)-K(X)-GHEAYHSVERFDDQH-K(X)-K(X)-OH [scPalm15] ({K(Palm)-K(Palm)}-GHEAYHSVERFDDQH-{K(Palm)-K(Palm)-OH}) [X = Palmitoyl] | β-sheet conformation | – |
| 7.8 | 11023 | 30 | H-K(X)-K(X)-QHHVEYGSDHRFEAD-K(X)-K(X)-OH [Palm15-1] ({K(Palm)-K(Palm)}-QHHVEYGSDHRFEAD-{K(Palm)-K(Palm)-OH}) [X = Palmitoyl] | β-sheet conformation | – |
